From patent publication US12473303B2, “4-[[(7-aminopyrazolo[1,5-a]pyrimidin-5-yl)amino methyl]piperidin-3-ol compounds and their therapeutic use” (CARRICK THERAPEUTICS LIMITED, priority 2019, dated 2025)
Read-outs that look alike come from different tables or passages of the source.

Assays:
[1] = target: Human CDK7/CycH/MAT1 (Homo sapiens (Human), UniProt P50613); assay: Radiometric protein kinase assay (33PanQinase Activity Assay), CDK7; type: biochemical; details: Table 1; ATP 3 μM
Procedure: (§1) A radiometric protein kinase assay (^33PanQinase® Activity Assay) was used for measuring the kinase activity of the two protein kinases (CDK12/CDK7). All kinase assays were performed in 96-well FlashPlates™ from PerkinElmer (Boston, MA, USA) in a 50 μL reaction volume.
(§2) The reaction cocktail was pipetted in four steps in the following order: • 20 μL of assay buffer (standard buffer) • 5 μL of ATP solution (in H2O) • 5 μL of test compound (in 10% DMSO) • 10 μL of substrate/10 μL of enzyme solution (premixed)
(§3) The reaction mixture was incubated at 30° C. for 60 min and then stopped by the addition of 2% (v/v) H3PO4. Plates were aspirated and washed two times with 200 μL 0.9% (w/v) NaCl. Incorporation of ^33Pi was determined with a microplate scintillation count (Microbeta, Wallac).
(§4) The fitting method used was a least-squares fit.

[2] = target: Human CDK12 wt/CycK (Homo sapiens (Human), UniProt Q9NYV4); assay: Radiometric protein kinase assay (33PanQinase Activity Assay), CDK12; type: biochemical; details: for CDK7/CDK12: ratio greater than 1 indicated selectivity for CDK12
Procedure: as §1, §2, §3, §4

[3] = system: A673 cells; assay: Cellular potency in A673 cells; type: cell-based; details: for IC50: Homo sapiens, A673, Table 3, A673 cells; for Ratio of Biochemical Potency: Cellular Potency: Table 3, ratio >0.9 is an indicator of Cyclin K degradation
[4] = Table 1, ATP 0.3 μM, read-out: CDK12 IC50
[5] = Table 3, CDK12 kinase activity, read-out: Biochemical Potency IC50

Human CDK12 wt/CycK, sequence (Q9NYV4 whole entry): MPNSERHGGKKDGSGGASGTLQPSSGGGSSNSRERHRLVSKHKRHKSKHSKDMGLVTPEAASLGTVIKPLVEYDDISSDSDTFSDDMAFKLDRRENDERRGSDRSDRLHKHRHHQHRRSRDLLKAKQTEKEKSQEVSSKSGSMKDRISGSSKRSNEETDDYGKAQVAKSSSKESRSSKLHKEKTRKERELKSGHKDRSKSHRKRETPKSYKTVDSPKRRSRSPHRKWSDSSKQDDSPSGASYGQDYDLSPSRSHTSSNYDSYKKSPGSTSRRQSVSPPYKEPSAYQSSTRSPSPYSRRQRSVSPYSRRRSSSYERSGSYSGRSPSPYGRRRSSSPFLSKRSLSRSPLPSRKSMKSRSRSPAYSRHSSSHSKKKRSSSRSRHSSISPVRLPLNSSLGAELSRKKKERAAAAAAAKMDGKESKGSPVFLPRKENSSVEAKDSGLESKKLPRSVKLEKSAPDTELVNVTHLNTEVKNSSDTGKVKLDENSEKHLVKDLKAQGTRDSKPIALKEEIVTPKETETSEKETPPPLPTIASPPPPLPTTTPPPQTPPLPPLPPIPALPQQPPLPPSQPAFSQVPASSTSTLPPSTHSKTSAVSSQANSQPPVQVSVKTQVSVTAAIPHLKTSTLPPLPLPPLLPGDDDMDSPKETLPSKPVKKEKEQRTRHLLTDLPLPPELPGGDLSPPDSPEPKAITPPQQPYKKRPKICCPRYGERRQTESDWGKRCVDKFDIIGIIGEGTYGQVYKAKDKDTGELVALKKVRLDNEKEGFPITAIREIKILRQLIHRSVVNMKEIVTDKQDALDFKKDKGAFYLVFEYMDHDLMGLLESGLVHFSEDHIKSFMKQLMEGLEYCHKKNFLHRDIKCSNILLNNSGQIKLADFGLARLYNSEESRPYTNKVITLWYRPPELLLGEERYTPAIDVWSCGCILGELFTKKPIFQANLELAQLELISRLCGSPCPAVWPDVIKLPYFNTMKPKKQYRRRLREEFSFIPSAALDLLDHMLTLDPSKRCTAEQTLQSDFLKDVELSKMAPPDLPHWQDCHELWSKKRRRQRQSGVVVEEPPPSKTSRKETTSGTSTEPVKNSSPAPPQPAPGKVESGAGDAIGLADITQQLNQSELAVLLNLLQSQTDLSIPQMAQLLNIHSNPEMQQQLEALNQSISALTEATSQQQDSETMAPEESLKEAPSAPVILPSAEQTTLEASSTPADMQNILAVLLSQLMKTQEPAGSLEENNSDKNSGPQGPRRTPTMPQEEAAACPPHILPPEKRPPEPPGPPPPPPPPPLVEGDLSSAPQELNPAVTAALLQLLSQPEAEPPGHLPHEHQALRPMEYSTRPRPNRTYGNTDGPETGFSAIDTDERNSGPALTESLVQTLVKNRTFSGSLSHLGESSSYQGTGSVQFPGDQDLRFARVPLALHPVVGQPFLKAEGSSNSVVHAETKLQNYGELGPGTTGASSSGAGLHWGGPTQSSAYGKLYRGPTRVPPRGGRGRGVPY
Human CDK12 wt/CycK, sequence (O75909 whole entry partner): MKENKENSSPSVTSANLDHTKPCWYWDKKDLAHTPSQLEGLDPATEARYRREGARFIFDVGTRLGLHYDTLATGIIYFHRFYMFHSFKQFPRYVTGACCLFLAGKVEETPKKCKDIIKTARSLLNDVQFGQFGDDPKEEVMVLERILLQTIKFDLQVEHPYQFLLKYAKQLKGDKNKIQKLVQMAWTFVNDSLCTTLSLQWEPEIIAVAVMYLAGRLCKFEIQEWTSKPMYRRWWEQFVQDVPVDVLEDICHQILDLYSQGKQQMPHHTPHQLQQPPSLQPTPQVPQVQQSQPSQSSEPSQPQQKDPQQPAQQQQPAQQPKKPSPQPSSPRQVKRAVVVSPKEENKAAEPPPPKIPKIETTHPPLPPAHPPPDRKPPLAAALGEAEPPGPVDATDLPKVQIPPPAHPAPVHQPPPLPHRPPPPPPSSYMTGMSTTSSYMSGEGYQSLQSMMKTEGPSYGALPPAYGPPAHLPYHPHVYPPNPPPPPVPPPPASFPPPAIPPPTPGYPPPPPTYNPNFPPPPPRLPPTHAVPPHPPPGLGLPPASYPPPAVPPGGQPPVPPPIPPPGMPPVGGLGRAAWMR
Human CDK7/CycH/MAT1, sequence (P50613 whole entry): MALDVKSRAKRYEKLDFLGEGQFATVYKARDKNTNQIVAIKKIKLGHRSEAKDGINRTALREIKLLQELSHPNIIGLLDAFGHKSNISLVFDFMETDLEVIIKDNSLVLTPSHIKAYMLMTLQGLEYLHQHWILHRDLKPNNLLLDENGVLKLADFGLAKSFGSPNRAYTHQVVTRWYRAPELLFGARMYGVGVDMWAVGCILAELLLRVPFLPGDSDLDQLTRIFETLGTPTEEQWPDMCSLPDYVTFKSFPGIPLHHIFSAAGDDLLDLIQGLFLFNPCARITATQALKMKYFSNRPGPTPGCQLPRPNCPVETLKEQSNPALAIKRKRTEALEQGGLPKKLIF
Human CDK7/CycH/MAT1, sequence (P51946 whole entry partner): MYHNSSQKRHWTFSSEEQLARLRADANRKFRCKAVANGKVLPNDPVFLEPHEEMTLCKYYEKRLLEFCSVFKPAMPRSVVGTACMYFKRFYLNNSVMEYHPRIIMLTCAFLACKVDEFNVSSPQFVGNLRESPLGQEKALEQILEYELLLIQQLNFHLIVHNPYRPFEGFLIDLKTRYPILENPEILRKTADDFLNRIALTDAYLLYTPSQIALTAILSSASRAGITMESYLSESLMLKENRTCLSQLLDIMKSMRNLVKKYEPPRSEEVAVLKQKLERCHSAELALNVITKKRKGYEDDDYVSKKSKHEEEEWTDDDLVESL
Human CDK7/CycH/MAT1, sequence (P51948 whole entry partner): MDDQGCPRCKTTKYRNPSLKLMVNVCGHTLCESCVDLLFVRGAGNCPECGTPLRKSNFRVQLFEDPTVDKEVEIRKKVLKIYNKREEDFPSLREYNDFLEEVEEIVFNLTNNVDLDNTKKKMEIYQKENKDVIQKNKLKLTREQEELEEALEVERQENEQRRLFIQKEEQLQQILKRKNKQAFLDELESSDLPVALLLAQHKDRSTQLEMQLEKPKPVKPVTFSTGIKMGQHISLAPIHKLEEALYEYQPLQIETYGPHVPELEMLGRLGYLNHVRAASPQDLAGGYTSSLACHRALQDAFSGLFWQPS

| Structure (SMILES) | IC50 [1] [nM] | IC50 [2, 4] [nM] | CDK7/CDK12 ([2]; Table 1) | IC50 [2, 5] [nM] | IC50 [3] [nM] | Ratio of Biochemical Potency: Cellular Potency [3] |
| --- | --- | --- | --- | --- | --- | --- |
| Cc1cccc2ncc(CNc3cc(NC[C@H]4CCNC[C@@H]4O)nc4c(C(C)C)cnn34)n12 [H-APPAMP-001, (3R,4R)-4-(((3-isopropyl-7-(((5-methylimidazo[1,2-a]pyridin-3-yl)methyl)amino)pyrazolo[1,5-a]pyrimidin-5-yl)amino)methyl)piperidin-3-ol] | 436 | 38 | 11.5 | 38 | 123 | 0.3 |
| CC(C)c1cnn2c(NCc3cn4cccnc4n3)cc(NC[C@H]3CCNC[C@@H]3O)nc12 [H-APPAMP-002, (3R,4R)-4-(((7-((imidazo[1,2-a]pyrimidin-2-ylmethyl)amino)-3-isopropylpyrazolo[1,5-a]pyrimidin-5-yl)amino)methyl)piperidin-3-ol] | 704 | 71.5 | 9.85 | 71 | 716 | 0.1 |
| CC(C)c1cnn2c(NCc3cn4ccccc4n3)cc(NC[C@H]3CCNC[C@@H]3O)nc12 [H-APPAMP-003, (3R,4R)-4-(((7-((imidazo[1,2-a]pyridin-2-ylmethyl)amino)-3-isopropylpyrazolo[1,5-a]pyrimidin-5-yl)amino)methyl)piperidin-3-ol] | 411 | 50.2 | 8.19 | 50 | 8 | 6.2 |
| CC(C)c1cnn2c(NCc3nc4ccccc4[nH]3)cc(NC[C@H]3CCNC[C@@H]3O)nc12 [H-APPAMP-005, (3R,4R)-4-(((7-(((1H-benzo[d]imidazol-2-yl)methyl)amino)-3-isopropylpyrazolo[1,5-a]pyrimidin-5-yl)amino)methyl)piperidin-3-ol] | 343 | 65 | 5.28 | 65 | 47 | 1.4 |
| CC(C)c1cnn2c(NCc3ccc4c(c3)ncn4C)cc(NC[C@H]3CCNC[C@@H]3O)nc12 [H-APPAMP-006, (3R,4R)-4-(((3-isopropyl-7-(((1-methyl-1H-benzo[d]imidazol-5-yl)methyl)amino)pyrazolo[1,5-a]pyrimidin-5-yl)amino)methyl)piperidin-3-ol] | 127 | 26.9 | 4.72 | 27 | 52 | 0.5 |
| Cc1csc2nc(CNc3cc(NC[C@H]4CCNC[C@@H]4O)nc4c(C(C)C)cnn34)cn12 [H-APPAMP-007, (3R,4R)-4-[[[3-isopropyl-7-[(3-methylimidazo[2,1-b]thiazol-6-yl)methylamino]pyrazolo[1,5-a]pyrimidin-5-yl]amino]methyl]piperidin-3-ol] | 158 | 20 | 7.90 | 20 | 27 | 0.7 |
| Cc1ccn2cc(CNc3cc(NC[C@H]4CCNC[C@@H]4O)nc4c(C(C)C)cnn34)nc2c1 [H-APPAMP-009, (3R,4R)-4-(((3-isopropyl-7-(((7-methylimidazo[1,2-a]pyridin-2-yl)methyl)amino)pyrazolo[1,5-a]pyrimidin-5-yl)amino)methyl)piperidin-3-ol] | 123 | 38 | 3.2 | 38 | 14.9 | 2.6 |
| Cc1cccc2nc(CNc3cc(NC[C@H]4CCNC[C@@H]4O)nc4c(C(C)C)cnn34)cn12 [H-APPAMP-010, (3R,4R)-4-(((3-isopropyl-7-(((5-methylimidazo[1,2-a]pyridin-2-yl)methyl)amino)pyrazolo[1,5-a]pyrimidin-5-yl)amino)methyl)piperidin-3-ol] | 238 | 40 | 6.0 | 40 | 4.3 | 9.3 |
| CC(C)c1cnn2c(NCc3cn4cc(F)ccc4n3)cc(NC[C@H]3CCNC[C@@H]3O)nc12 [H-APPAMP-011, (3R,4R)-4-(((7-(((6-fluoroimidazo[1,2-a]pyridin-2-yl)methyl)amino)-3-isopropylpyrazolo[1,5-a]pyrimidin-5-yl)amino)methyl)piperidin-3-ol] | 168 | 33 | 5.1 | 33 | 6.3 | 5.2 |
| CC(C)c1cnn2c(NCc3cn4cc(Cl)ccc4n3)cc(NC[C@H]3CCNC[C@@H]3O)nc12 [H-APPAMP-012, (3R,4R)-4-(((7-(((6-chloroimidazo[1,2-a]pyridin-2-yl)methyl)amino)-3-isopropylpyrazolo[1,5-a]pyrimidin-5-yl)amino)methyl)piperidin-3-ol] | 214 | 26 | 8.2 | 26 | 21.8 | 1.2 |
| CC(C)c1cnn2c(NCc3cn4cccc(C5CC5)c4n3)cc(NC[C@H]3CCNC[C@@H]3O)nc12 [H-APPAMP-013, (3R,4R)-4-(((7-(((8-cyclopropylimidazo[1,2-a]pyridin-2-yl)methyl)amino)-3-isopropylpyrazolo[1,5-a]pyrimidin-5-yl)amino)methyl)piperidin-3-ol] | 226 | 70 | 3.2 | 70 | 12.2 | 5.7 |
| CC(C)c1cnn2c(NCc3ccc4ccccc4n3)cc(NC[C@H]3CCNC[C@@H]3O)nc12 [H-APPAMP-014, (3R,4R)-4-(((3-isopropyl-7-((quinolin-2-ylmethyl)amino)pyrazolo[1,5-a]pyrimidin-5-yl)amino)methyl)piperidin-3-ol] | 19 | 75 | 0.3 | 75 | 7.3 | 10 |
| Cc1ccn2c(CNc3cc(NC[C@H]4CCNC[C@@H]4O)nc4c(C(C)C)cnn34)c(C)nc2c1 [H-APPAMP-015, (3R,4R)-4-(((7-(((2,7-dimethylimidazo[1,2-a]pyridin-3-yl)methyl)amino)-3-isopropylpyrazolo[1,5-a]pyrimidin-5-yl)amino)methyl)piperidin-3-ol] | 3 | 277 | 0.01 | 277 | 151 | 1.8 |
| CC(C)c1cnn2c(NCc3cnc4ccccn34)cc(NC[C@H]3CCNC[C@@H]3O)nc12 [H-APPAMP-016, (3R,4R)-4-(((7-((imidazo[1,2-a]pyridin-3-ylmethyl)amino)-3-isopropylpyrazolo[1,5-a]pyrimidin-5-yl)amino)methyl)piperidin-3-ol] | 179 | 96 | 1.9 | 96 | 14.8 | 6.5 |
| Cc1c(CNc2cc(NC[C@H]3CCNC[C@@H]3O)nc3c(C(C)C)cnn23)nc2ccccn12 [H-APPAMP-017, (3R,4R)-4-(((3-isopropyl-7-(((3-methylimidazo[1,2-a]pyridin-2-yl)methyl)amino)pyrazolo[1,5-a]pyrimidin-5-yl)amino)methyl)piperidin-3-ol] | 40 | 63 | 0.6 | 143 | 8.3 | 17.2 |
| CC(C)c1cnn2c(NCc3ccccc3)cc(NC[C@H]3CCNC[C@@H]3O)nc12 [REF-001, reference compound] | – | 3200 | – | – | – | – |
| CC(C)c1cnn2c(NCc3ccncc3)cc(NC[C@H]3CCNC[C@@H]3O)nc12 [REF-002, reference compound] | 125 | 253 | – | – | – | – |
| CC(C)c1cnn2c(Nc3csc4ccccc34)cc(NC[C@H]3CCNC[C@@H]3O)nc12 [REF-003, reference compound] | 11 | 597 | – | – | – | – |
